Results: ChEMBL document CHEMBL1955741, “Identification of fused bicyclic heterocycles as potent and selective 5-HT(2A) receptor antagonists for the treatment of insomnia” (Bioorg Med Chem Lett, 2012)
Active and inactive are the calls of the source. The calls are words filed in the database; no cut-off is given here.

Assays:
[1] = target: 5-hydroxytryptamine receptor 2A (Homo sapiens, UniProt P28223)
Description: Displacement of [125I]-DOI from recombinant human 5HT2A receptor

[2] = target: T1, 5-hydroxytryptamine receptor 2C (Homo sapiens, UniProt P28335)
T1 sequence (P28335 whole entry): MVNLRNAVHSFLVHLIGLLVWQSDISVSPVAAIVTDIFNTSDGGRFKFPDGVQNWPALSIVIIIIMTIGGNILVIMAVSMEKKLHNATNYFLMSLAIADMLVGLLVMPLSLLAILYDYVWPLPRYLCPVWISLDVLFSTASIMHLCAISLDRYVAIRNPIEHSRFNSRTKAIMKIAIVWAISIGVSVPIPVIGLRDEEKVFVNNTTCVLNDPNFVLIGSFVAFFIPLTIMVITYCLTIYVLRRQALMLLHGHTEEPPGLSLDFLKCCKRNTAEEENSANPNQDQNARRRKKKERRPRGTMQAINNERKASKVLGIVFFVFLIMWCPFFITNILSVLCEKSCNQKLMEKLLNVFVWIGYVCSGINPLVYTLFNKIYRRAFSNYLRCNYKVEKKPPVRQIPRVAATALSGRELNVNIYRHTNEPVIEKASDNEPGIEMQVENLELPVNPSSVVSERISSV

Rattus norvegicus = experiment: Inhibition of DOI-induced hypolocomotion in rat at 1 mg/kg coadministered with DOI 10 mins prior testing; format: functional, organism-based; set-up: dose 1 mg/kg

Sequence of 5-hydroxytryptamine receptor 2A (P28223 whole entry): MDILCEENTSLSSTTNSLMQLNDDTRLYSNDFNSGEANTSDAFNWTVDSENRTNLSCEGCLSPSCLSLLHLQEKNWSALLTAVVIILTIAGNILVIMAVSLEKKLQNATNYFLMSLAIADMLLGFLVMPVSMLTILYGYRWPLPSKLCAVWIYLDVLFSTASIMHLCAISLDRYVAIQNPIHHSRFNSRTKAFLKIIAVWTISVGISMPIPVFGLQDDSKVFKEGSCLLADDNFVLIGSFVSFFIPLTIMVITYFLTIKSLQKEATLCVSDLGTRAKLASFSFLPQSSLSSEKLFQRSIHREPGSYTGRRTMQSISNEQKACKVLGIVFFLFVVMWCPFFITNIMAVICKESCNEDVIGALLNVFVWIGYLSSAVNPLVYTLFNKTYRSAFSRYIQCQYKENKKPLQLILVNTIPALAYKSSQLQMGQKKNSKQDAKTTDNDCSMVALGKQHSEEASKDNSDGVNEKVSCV

Ki [1] | Ki [2] | SMILES | Activity (Rattus norvegicus)
1.7 nM | 739 nM | O=C(c1cnc2ccccn12)N1CCN(CCc2ccc(F)cc2F)CC1 | –
3.6 nM | 153 nM | Cc1cc(C)n2ccnc2c1C(=O)N1CCN(CCc2ccc(F)cc2F)CC1 | –
5.6 nM | 1360 nM | O=C(c1cc2ncccn2n1)N1CCN(CCc2ccc(F)cc2F)CC1 | –
18 nM | 2880 nM | O=C(c1cnn2c1CCCC2)N1CCN(CCc2ccc(F)cc2F)CC1 | –
5.7 nM | 467 nM | O=C(c1cc2ccccn2n1)N1CCN(CCc2ccc(F)cc2F)CC1 | –
– | – | Cn1cc(Br)c(C(=O)N2CCN(CC(=O)c3ccc(F)cc3)CC2)n1 | Active
5 nM | 474 nM | O=C(c1cc(Br)cn2ccnc12)N1CCN(CCc2ccc(F)cc2F)CC1 | –
0.4 nM | 194 nM | O=C(c1cccc2ccnn12)N1CCN(CCc2ccc(F)cc2F)CC1 | –
0.8 nM | 496 nM | O=C(c1nn2ccccc2c1Br)N1CCN(CCc2ccc(F)cc2F)CC1 | –
5.9 nM | 575 nM | O=C(c1cnn2cc(Cl)ccc12)N1CCN(CCc2ccc(F)cc2F)CC1 | –
1.9 nM | 581 nM | O=C(c1nc2ccccn2c1Br)N1CCN(CCc2ccc(F)cc2F)CC1 | –
2.6 nM | 717 nM | O=C(c1cc2n(n1)CCCC2)N1CCN(CCc2ccc(F)cc2F)CC1 | –
